Test results as given in patent US20210251228A1, “METHODS FOR REPELLING DROSOPHILA SPECIES USING 2-PENTYLFURAN” (The United States of America, as represented by the …, priority 2020, published 2021).

How the values were obtained:
Drosophila suzukii [1] = assay: Field test 2 with known 2-pentylfuran release rate: SWD infestation of field raspberries; assay type: in vivo; settings: 14.18 mg/h from two sachets, 48 h, N=15
Description: Field test 2 with known 2-pentylfuran release rate: We evaluated the effect of a known release rate of 2-pentylfuran on SWD infestation using 15 small plots of primocane raspberries (each plot=three 7 m rows of Heritage raspberries with 2.4 m between rows and with approximately 11 raspberries planted within each row) planted at different sites on research farms at Cornell AgriTech (plots separated by at least 0.5 km). The plantings were established in 2018 and the trial was conducted in the fall of 2019 as ripe raspberries were present along with high levels of SWD infestations in the area. At each plot we identified two fruiting canes (one for 2-pentylfuran treatment and one for control) that had large green fruit present separated by at least 3 m. After hand removal of any pink or ripe fruit, on 12 Sep. […] Ripe berries were removed from the canes, counted, weighed, placed in rearing cups (540 ml deli cups with approximately 1 cm of water agar at base with a perforated lid), and placed in a walk-in growth chamber (25° C., 55% r.h., 16:8 L:D) for 6 days at which time SWD were enumerated (mostly pupae, a few large larvae). Fruits from canes that were collected to estimate the background level of SWD infestation were evaluated for SWD infestation using the same method as for the canes used to test 2-pentylfuran. […]

Drosophila suzukii [2] = assay: No-choice oviposition cage experiment: release rate of 2-pentylfuran on raspberry; assay type: in vivo; settings: 2 h
Description: Effects of Release Rate of 2-pentylfuran on SWD Oviposition on Raspberry: No Choice Test. Based on the significant effect of 2-pentylfuran using an unknown release rate in the field, to better understand concentration response of SWD to 2-pentylfuran, we evaluated the response of adult SWD to different ranges of 2-pentylfuran release rates in 2 h no choice oviposition cage experiments conducted in the greenhouse (25° C.; natural light; 40-60% r.h.). Cages (60 cm W×60 cm H×180 cm L, BioQuip, Rancho Dominguez, Calif.) were shrouded with a piece of shade cloth (120 cm W×120 cm H×300 cm L). […] Actual release rates from each dispenser used were measured for each assay by recording weight of the dispensers prior and post assay. […] Upon completion of the assay, total number of SWD eggs oviposited into the raspberries was determined with the aid of a dissecting microscope.
Statistical Analyses: Trap catch data from multiple-choice assay and two-choice assay were analyzed in a randomized block design with block as a random factor and different EAD-active compounds as a fixed factor using Poisson distribution with log link function and maximum likelihood estimation (Proc Glimmix, SAS Institute, SAS/STAT 9.2 User's Guide, Second Edition, 2009, SAS Institute Inc., Cary, N.C.). […]

CCCCCc1ccco1 [2-pentylfuran]
reduction of SWD infestation per berry relative to control (Drosophila suzukii [1]): 56%
release rate at which SWD oviposition began to decline relative to control (Drosophila suzukii [2]; greenhouse cages, raspberries, N=12): around 2.5 mg/h
reduction in number of eggs laid compared to control (Drosophila suzukii [2]; high release rate (5 and 10 mg/h)): 58%
